Test systems include SNB-78 CNS; DMS 114 small cell lung; KM20L2 colon; M19-MEL melanoma; HOP-18 NSCLC; XF 498 CNS; LXFL 529 NSCLC; DLD-1 colon; RXF-631 renal; DMS 273 small cell lung.
Experiment in all cases: NCI anticancer screen, dose series, 48 h

The values below come from PubChem BioAssay (NCI).

The structures appear in SMILES notation.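 Values below derive from 48-hour exposures of cells grown in 96-well plates, with endpoints linearly interpolated between the two concentrations bracketing the appropriate inhibition level. TGI marks complete inhibition of growth.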

Take `NC(=O)N/N=C(/Cc1nc2ccc(C(=O)c3ccccc3)cc2[nH]c1=O)C(=O)Nc1ccc(C(F)(F)F)cc1[N+](=O)[O-]`: the TGI in the experiment on SNB-78 CNS, in the experiment with DMS 114 small cell lung, in the experiment with KM20L2 colon, with M19-MEL melanoma, in the experiment with HOP-18 NSCLC and in the experiment with XF 498 CNS was over 100 µM in each case. Further, the TGI in the experiment on LXFL 529 NSCLC, in the experiment on DLD-1 colon, in the experiment on RXF-631 renal and in the experiment with DMS 273 small cell lung was over 100 µM each time.
In the case of `CCOC(=O)[C@H]1Nc2ccc([N+](=O)[O-])cc2C2c3ccccc3CC21` (stereo partly specified), the TGI in the experiment on SNB-78 CNS was over 100 µM; in the experiment on DMS 114 small cell lung, 54 µM; in the experiment on KM20L2 colon, 54 µM; in the experiment on M19-MEL melanoma it was 70.7 µM; in the experiment on XF 498 CNS it was 82.7 µM; with LXFL 529 NSCLC it was 49.3 µM. The TGI in the experiment on DLD-1 colon is over 100 µM; in the experiment on DMS 273 small cell lung, 34.9 µM.
As to `COc1ccc2c(c1)CC1c3c(ccc(OC)c3O)CC2N1C` (stereo unspecified), the TGI in the experiment on SNB-78 CNS is 97 µM; in the experiment on DMS 114 small cell lung, 38.8 µM; with KM20L2 colon it was over 70 µM; with M19-MEL melanoma, 56.9 µM; with HOP-18 NSCLC it was over 100 µM; in the experiment with XF 498 CNS, 62.3 µM. In addition, the TGI in the experiment on LXFL 529 NSCLC is 39 µM; with DLD-1 colon, over 100 µM; with RXF-631 renal it was 47.1 µM; in the experiment with DMS 273 small cell lung it was 45.2 µM.
Consider `CC(=O)C(CN(C)C)C(c1ccccc1)c1c(O)c2ccccc2oc1=O` (stereo unspecified), for which the TGI in the experiment with SNB-78 CNS, with DMS 114 small cell lung, with KM20L2 colon, in the experiment with M19-MEL melanoma, in the experiment with HOP-18 NSCLC and in the experiment with XF 498 CNS was over 100 µM each time. In addition, the TGI with LXFL 529 NSCLC, in the experiment with DLD-1 colon and in the experiment with DMS 273 small cell lung was over 100 µM each time.
Turning to `CCCCN[C@H]1C2C3CC4C5CC(C42)C1(C)C53` (stereo partly specified), the TGI in the experiment on SNB-78 CNS, in the experiment on DMS 114 small cell lung, in the experiment with KM20L2 colon, in the experiment with M19-MEL melanoma, with HOP-18 NSCLC and with LXFL 529 NSCLC was over 100 µM in each case. The TGI in the experiment on DLD-1 colon and in the experiment on DMS 273 small cell lung was over 100 µM each time.
With `O=S(=O)(c1ccccc1)n1cc(C[P+](c2ccccc2)(c2ccccc2)c2ccccc2)c2ccccc21`, the TGI in the experiment on SNB-78 CNS worked out at 20.7 µM; in the experiment with DMS 114 small cell lung it was 14.4 µM; in the experiment with KM20L2 colon, 16.6 µM; with M19-MEL melanoma it was 15.9 µM; in the experiment with XF 498 CNS, 12.1 µM; with LXFL 529 NSCLC, 8.26 µM. Further, the TGI in the experiment with DLD-1 colon came out at 11 µM; in the experiment on DMS 273 small cell lung it was 10.2 µM.
As for `Cc1cc(=O)[nH]c(NNC(C#N)c2c(O)ccc3ccccc23)n1` (stereo unspecified), the TGI in the experiment with SNB-78 CNS was over 100 µM; in the experiment on DMS 114 small cell lung, 5.81 µM; in the experiment on KM20L2 colon, 95.7 µM; with M19-MEL melanoma, 25 µM; in the experiment with HOP-18 NSCLC it was over 100 µM; in the experiment with LXFL 529 NSCLC it was 47 µM. The TGI was 24.7 µM with DLD-1 colon and 18.7 µM in the experiment on DMS 273 small cell lung.
Consider `CC1(S)CC2C(CC1Sc1ccccc1)C2(C)C` (stereo unspecified), for which the TGI in the experiment with SNB-78 CNS, in the experiment on DMS 114 small cell lung, with M19-MEL melanoma, in the experiment with HOP-18 NSCLC, with XF 498 CNS and in the experiment on LXFL 529 NSCLC was over 100 µM in each case. The TGI with DLD-1 colon and with DMS 273 small cell lung was over 100 µM throughout.
Take `CC1(C)OCC([C@H]2CC23SCCCS3)O1` (stereo partly specified): the TGI with SNB-78 CNS, with DMS 114 small cell lung, in the experiment on KM20L2 colon, in the experiment with HOP-18 NSCLC, with XF 498 CNS and in the experiment with LXFL 529 NSCLC was over 100 µM in each case. For the same molecule, the TGI in the experiment on DLD-1 colon and with DMS 273 small cell lung was over 100 µM in each case.
For `O=C(Nc1cc(Cl)cc(Cl)c1)/C(Cc1nc2ccccc2[nH]c1=O)=N/NC(=O)c1ccncc1`, the TGI with SNB-78 CNS, in the experiment with DMS 114 small cell lung, in the experiment on KM20L2 colon, in the experiment on M19-MEL melanoma, in the experiment on LXFL 529 NSCLC and in the experiment on DLD-1 colon was over 100 µM in each case. In the experiment with RXF-631 renal, the TGI is over 100 µM.
Turning to `NCCCCC(=O)c1cccnc1`, the TGI in the experiment with SNB-78 CNS, in the experiment with DMS 114 small cell lung, in the experiment on KM20L2 colon, in the experiment on M19-MEL melanoma, in the experiment on HOP-18 NSCLC and in the experiment with XF 498 CNS was over 100 µM in each case. Further, the TGI with LXFL 529 NSCLC, in the experiment on DLD-1 colon and in the experiment with DMS 273 small cell lung was over 100 µM each time.
Take `Cc1cnc2c(c1)C(=O)C1=C(OC(C)(C)CC1O)C2=O` (stereo unspecified): the TGI with DMS 114 small cell lung worked out at 22.4 µM; in the experiment with KM20L2 colon, 32.5 µM; in the experiment on M19-MEL melanoma, 9.86 µM; in the experiment with HOP-18 NSCLC it was 29.3 µM; in the experiment on XF 498 CNS it was 34 µM; in the experiment on LXFL 529 NSCLC, 29.9 µM. The TGI in the experiment on DLD-1 colon amounted to 33.5 µM; with DMS 273 small cell lung, 25.4 µM.
In the case of `CN(C)CC1CCCCCCCCCC(CN(C)C)C1=O` (stereo unspecified), the TGI in the experiment with SNB-78 CNS, in the experiment with DMS 114 small cell lung, with KM20L2 colon, in the experiment with M19-MEL melanoma, with HOP-18 NSCLC and in the experiment with XF 498 CNS was over 100 µM in each case. Also, the TGI in the experiment with LXFL 529 NSCLC, with DLD-1 colon, with RXF-631 renal and in the experiment with DMS 273 small cell lung was over 100 µM throughout.
